Assay results taken from patent publication US20070078123A1, “1-Thia-3-aza-dibenzo[e,h]azulenes for the treatment of central nervous system diseases and disorders” (PILVA-ISTRAZIVACKI INSTITUT D.O.O., priority 2003, published 2007).

How the values were obtained:
5-HT2A receptor = target: T1, 5-HT2A receptor (Homo sapiens, UniProt P28223); experiment: Radioligand binding assay for 5-HT2A receptor ([3H]-ketanserin competitive binding); conditions: human cortex or recombinant 5-HT2A receptor expressed in CHO-K1 cells, read-out: binding affinity to 5-HT2A serotonin receptor expressed as IC50 value
T1 construct: expressed in transfected cells; host or cells: CHO-K1 (or COS-7) cells; alternatively human cortex tissue
Protocol: (§1) The effect of the compounds of the present invention on the neurochemical steady state was determined by in vitro investigations such as a radionuclide-marked radioligand binding assay for 5-HT2A (Bonhaus D. W. Br. J. Pharmacol. 1995, 115:622; Saucier C. J. Neurochem. 1997, 68:1998) and 5-HT2C receptors (Wolf W. A. J. Neurochem. 1997, 69:1449), in vitro binding assay for σ1 receptor (Thomson W. and Donn R. Arthritis Res. 2002, 4: 302-306) and by in vivo investigations in a tail suspension test (Vogel H. G. and Vogel W. H. Drug Discovery and Evaluation Pharmacological Assays, Springer 1997, 304), in amphethamine-induced hyperlocomotion in mice (Millan M. J. et al, 1998 J Pharmacol. Exp. 7her. 287: 167-186), in a forced swim test in mice (Porsolt R. D. et al. Arch. Int. Pharmacodyn. 1977, 229:327-336), in meta-chlorophenyl piperazine (m-CPP) test on rats (Drug Dev. Res. 1989, 18:119-144), and in apomorphine, tryptamine and norepinephrine (ATN) test in rats (Arch. Int. Pharmacodyn. 1977, 227:238-253). […]
(§2) During incubation the radioligand bound to the receptor. When a binding balance was achieved, the receptors to which the radioligand was bound were separated from those to which said ligand was not bound, and the radioactivity of the receptor/radioligand complex was measured. […]

5-HT2C receptor = target: T2, 5-HT2C receptor (Homo sapiens, UniProt P28335); experiment: Radioligand binding assay for 5-HT2C receptor ([3H]-mesulergine competitive binding); conditions: choroid plexus or recombinant 5-HT2C receptor expressed in CHO-K1 cells, read-out: binding affinity to 5-HT2C serotonin receptor expressed as IC50 value
T2 construct: expressed in transfected cells; host or cells: CHO-K1 (or COS-7) cells; alternatively choroid plexus tissue
T2 sequence (P28335 33-458): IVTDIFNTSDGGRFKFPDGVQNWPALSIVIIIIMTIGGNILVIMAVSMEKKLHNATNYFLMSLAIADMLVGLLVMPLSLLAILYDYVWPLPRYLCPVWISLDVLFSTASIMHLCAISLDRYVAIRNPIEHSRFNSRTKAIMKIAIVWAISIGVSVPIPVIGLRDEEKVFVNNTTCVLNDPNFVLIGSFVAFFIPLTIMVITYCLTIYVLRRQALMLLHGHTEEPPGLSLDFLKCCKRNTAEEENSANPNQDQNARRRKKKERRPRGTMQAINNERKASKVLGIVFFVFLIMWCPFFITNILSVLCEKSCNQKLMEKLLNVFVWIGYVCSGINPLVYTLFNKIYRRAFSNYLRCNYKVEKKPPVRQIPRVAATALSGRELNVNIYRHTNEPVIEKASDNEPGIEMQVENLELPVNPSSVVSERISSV
Protocol: as §1, §2

T1 sequence (P28223 whole entry): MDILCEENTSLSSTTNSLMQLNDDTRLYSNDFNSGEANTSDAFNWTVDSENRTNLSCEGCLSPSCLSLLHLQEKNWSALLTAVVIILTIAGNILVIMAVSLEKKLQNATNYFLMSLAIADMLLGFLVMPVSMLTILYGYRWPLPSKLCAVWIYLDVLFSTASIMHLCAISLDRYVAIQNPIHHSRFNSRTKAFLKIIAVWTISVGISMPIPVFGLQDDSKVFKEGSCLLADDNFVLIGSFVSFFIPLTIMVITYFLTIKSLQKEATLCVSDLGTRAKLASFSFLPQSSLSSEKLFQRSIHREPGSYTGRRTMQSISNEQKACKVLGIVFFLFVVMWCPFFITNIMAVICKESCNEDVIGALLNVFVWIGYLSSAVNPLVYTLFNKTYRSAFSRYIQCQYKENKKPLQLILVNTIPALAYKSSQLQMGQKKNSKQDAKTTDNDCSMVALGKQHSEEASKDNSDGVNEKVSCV

Compound `CN(C)CCCOCc1nc2c(s1)-c1ccccc1Oc1ccc(Cl)cc1-2` [[3-(5-chloro-8-oxa-1-thia-3-aza-dibenzo[e,h]azulen-2-ylmethoxy)-propyl]-dimethyl-amine] has an IC50 (5-HT2A receptor) of less than 200 nM and an IC50 (5-HT2C receptor) of less than 200 nM.
